Source: US8192962B2, “Processes for detecting toxic substances” (Daikin Industries, Ltd., priority 2001, dated 2012)

System: Genes belonging to other category
Experiment: DNA chip mRNA expression in yeast, genes belonging to other category (Table 9)
Format: cell-based, Saccharomyces cerevisiae S288C
Outline: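 In this screen, yeast in logarithmic growth are challenged for two hours with a toxic substance at a non-lethal inhibitory concentration. Their mRNA, converted to Cy3- or Cy5-labeled cDNA, hybridizes at 65° C. to a chip spanning every yeast gene, and expression is expressed as a ratio to untreated cells.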

In the case of `O=[N+]([O-])c1cc[n+]([O-])c2ccccc12` [(5), 4-nitroquinolin-N-oxide], the “The level of expressed mRNA in the presence of chemical substance/The level of expressed mRNA in the absence of chemical substance” value (yeast gene YHR169W) is reported as 1.1, the “The level of expressed mRNA in the presence of chemical substance/The level of expressed mRNA in the absence of chemical substance” value (yeast gene YHR185C) is reported as 1.4 and the “The level of expressed mRNA in the presence of chemical substance/The level of expressed mRNA in the absence of chemical substance” value (yeast gene YHR195W) is reported as 1.5. For the same compound, the “The level of expressed mRNA in the presence of chemical substance/The level of expressed mRNA in the absence of chemical substance” value (yeast gene YIL010W) was 1.2, the “The level of expressed mRNA in the presence of chemical substance/The level of expressed mRNA in the absence of chemical substance” value (yeast gene YIL076W) was 1.8 and the “The level of expressed mRNA in the presence of chemical substance/The level of expressed mRNA in the absence of chemical substance” value (yeast gene YIL123W) was 0.6. For the same compound, the “The level of expressed mRNA in the presence of chemical substance/The level of expressed mRNA in the absence of chemical substance” value (yeast gene YIL140W) was 0.8, the “The level of expressed mRNA in the presence of chemical substance/The level of expressed mRNA in the absence of chemical substance” value (yeast gene YJL035C) was 1.4 and the “The level of expressed mRNA in the presence of chemical substance/The level of expressed mRNA in the absence of chemical substance” value (yeast gene YJL053W) was 1.1. The “The level of expressed mRNA in the presence of chemical substance/The level of expressed mRNA in the absence of chemical substance” value (yeast gene YJL073W) was 1.2, the “The level of expressed mRNA in the presence of chemical substance/The level of expressed mRNA in the absence of chemical substance” value (yeast gene YJL089W) was 1.1 and the “The level of expressed mRNA in the presence of chemical substance/The level of expressed mRNA in the absence of chemical substance” value (yeast gene YJL116C) was 1.3. For the same compound, the “The level of expressed mRNA in the presence of chemical substance/The level of expressed mRNA in the absence of chemical substance” value (yeast gene YJL164C) was 1.1, the “The level of expressed mRNA in the presence of chemical substance/The level of expressed mRNA in the absence of chemical substance” value (yeast gene YJL210W) was 0.6 and the “The level of expressed mRNA in the presence of chemical substance/The level of expressed mRNA in the absence of chemical substance” value (yeast gene YJR004C) was 1.1. The “The level of expressed mRNA in the presence of chemical substance/The level of expressed mRNA in the absence of chemical substance” value (yeast gene YJR086W) was 1.3, the “The level of expressed mRNA in the presence of chemical substance/The level of expressed mRNA in the absence of chemical substance” value (yeast gene YJR117W) was 1.2 and the “The level of expressed mRNA in the presence of chemical substance/The level of expressed mRNA in the absence of chemical substance” value (yeast gene YKL007W) was 1.0. For the same compound, the “The level of expressed mRNA in the presence of chemical substance/The level of expressed mRNA in the absence of chemical substance” value (yeast gene YKL008C) was 0.9, the “The level of expressed mRNA in the presence of chemical substance/The level of expressed mRNA in the absence of chemical substance” value (yeast gene YKL013C) was 1.9 and the “The level of expressed mRNA in the presence of chemical substance/The level of expressed mRNA in the absence of chemical substance” value (yeast gene YKL039W) was 0.7. For the same compound, the “The level of expressed mRNA in the presence of chemical substance/The level of expressed mRNA in the absence of chemical substance” value (yeast gene YKL041W) was 1.3, the “The level of expressed mRNA in the presence of chemical substance/The level of expressed mRNA in the absence of chemical substance” value (yeast gene YKL096W) was 0.6 and the “The level of expressed mRNA in the presence of chemical substance/The level of expressed mRNA in the absence of chemical substance” value (yeast gene YKL117W) was 1.8. The “The level of expressed mRNA in the presence of chemical substance/The level of expressed mRNA in the absence of chemical substance” value (yeast gene YKL165C) was 0.9, the “The level of expressed mRNA in the presence of chemical substance/The level of expressed mRNA in the absence of chemical substance” value (yeast gene YKL193C) was 1.1 and the “The level of expressed mRNA in the presence of chemical substance/The level of expressed mRNA in the absence of chemical substance” value (yeast gene YKR076W) was 1.0. The “The level of expressed mRNA in the presence of chemical substance/The level of expressed mRNA in the absence of chemical substance” value (yeast gene YLR120C) was 1.1, the “The level of expressed mRNA in the presence of chemical substance/The level of expressed mRNA in the absence of chemical substance” value (yeast gene YLR136C) was 1.6 and the “The level of expressed mRNA in the presence of chemical substance/The level of expressed mRNA in the absence of chemical substance” value (yeast gene YLR178C) was 1.0. For the same compound, the “The level of expressed mRNA in the presence of chemical substance/The level of expressed mRNA in the absence of chemical substance” value (yeast gene YLR250W) was 1.4, the “The level of expressed mRNA in the presence of chemical substance/The level of expressed mRNA in the absence of chemical substance” value (yeast gene YLR327C) was 1.3 and the “The level of expressed mRNA in the presence of chemical substance/The level of expressed mRNA in the absence of chemical substance” value (yeast gene YLR356W) was 1.1. The “The level of expressed mRNA in the presence of chemical substance/The level of expressed mRNA in the absence of chemical substance” value (yeast gene YLR362W) was 1.5, the “The level of expressed mRNA in the presence of chemical substance/The level of expressed mRNA in the absence of chemical substance” value (yeast gene YLR391W) was 1.2 and the “The level of expressed mRNA in the presence of chemical substance/The level of expressed mRNA in the absence of chemical substance” value (yeast gene YLR429W) was 1.4. For the same compound, the “The level of expressed mRNA in the presence of chemical substance/The level of expressed mRNA in the absence of chemical substance” value (yeast gene YMR004W) was 1.0, the “The level of expressed mRNA in the presence of chemical substance/The level of expressed mRNA in the absence of chemical substance” value (yeast gene YMR094W) was 0.9 and the “The level of expressed mRNA in the presence of chemical substance/The level of expressed mRNA in the absence of chemical substance” value (yeast gene YMR104C) was 0.7. For the same compound, the “The level of expressed mRNA in the presence of chemical substance/The level of expressed mRNA in the absence of chemical substance” value (yeast gene YMR219W) was 1.6, the “The level of expressed mRNA in the presence of chemical substance/The level of expressed mRNA in the absence of chemical substance” value (yeast gene YMR226C) was 0.9 and the “The level of expressed mRNA in the presence of chemical substance/The level of expressed mRNA in the absence of chemical substance” value (yeast gene YMR238W) was 1.5. The “The level of expressed mRNA in the presence of chemical substance/The level of expressed mRNA in the absence of chemical substance” value (yeast gene YMR275C) was 0.7, the “The level of expressed mRNA in the presence of chemical substance/The level of expressed mRNA in the absence of chemical substance” value (yeast gene YMR276W) was 1.3 and the “The level of expressed mRNA in the presence of chemical substance/The level of expressed mRNA in the absence of chemical substance” value (yeast gene YMR297W) was 0.6. The “The level of expressed mRNA in the presence of chemical substance/The level of expressed mRNA in the absence of chemical substance” value (yeast gene YNL006W) was 0.9, the “The level of expressed mRNA in the presence of chemical substance/The level of expressed mRNA in the absence of chemical substance” value (yeast gene YNL007C) was 1.2 and the “The level of expressed mRNA in the presence of chemical substance/The level of expressed mRNA in the absence of chemical substance” value (yeast gene YNL093W) was 1.2. For the same compound, the “The level of expressed mRNA in the presence of chemical substance/The level of expressed mRNA in the absence of chemical substance” value (yeast gene YNL333W) was 1.5, the “The level of expressed mRNA in the presence of chemical substance/The level of expressed mRNA in the absence of chemical substance” value (yeast gene YNR010W) was 1.8 and the “The level of expressed mRNA in the presence of chemical substance/The level of expressed mRNA in the absence of chemical substance” value (yeast gene YNR069C) was 1.4. For the same compound, the “The level of expressed mRNA in the presence of chemical substance/The level of expressed mRNA in the absence of chemical substance” value (yeast gene YOL013C) was 0.7, the “The level of expressed mRNA in the presence of chemical substance/The level of expressed mRNA in the absence of chemical substance” value (yeast gene YOL109W) was 1.0 and the “The level of expressed mRNA in the presence of chemical substance/The level of expressed mRNA in the absence of chemical substance” value (yeast gene YOL164W) was 1.6. For the same compound, the “The level of expressed mRNA in the presence of chemical substance/The level of expressed mRNA in the absence of chemical substance” value (yeast gene YOR036W) was 1.1, the “The level of expressed mRNA in the presence of chemical substance/The level of expressed mRNA in the absence of chemical substance” value (yeast gene YOR117W) was 1.2 and the “The level of expressed mRNA in the presence of chemical substance/The level of expressed mRNA in the absence of chemical substance” value (yeast gene YOR124C) was 1.1. The “The level of expressed mRNA in the presence of chemical substance/The level of expressed mRNA in the absence of chemical substance” value (yeast gene YOR132W) was 1.1, the “The level of expressed mRNA in the presence of chemical substance/The level of expressed mRNA in the absence of chemical substance” value (yeast gene YOR157C) was 0.7 and the “The level of expressed mRNA in the presence of chemical substance/The level of expressed mRNA in the absence of chemical substance” value (yeast gene YOR181W) was 0.7. The “The level of expressed mRNA in the presence of chemical substance/The level of expressed mRNA in the absence of chemical substance” value (yeast gene YOR185C) was 1.2, the “The level of expressed mRNA in the presence of chemical substance/The level of expressed mRNA in the absence of chemical substance” value (yeast gene YOR198C) was 0.8 and the “The level of expressed mRNA in the presence of chemical substance/The level of expressed mRNA in the absence of chemical substance” value (yeast gene YOR259C) was 2.0. The “The level of expressed mRNA in the presence of chemical substance/The level of expressed mRNA in the absence of chemical substance” value (yeast gene YOR261C) was 1.5, the “The level of expressed mRNA in the presence of chemical substance/The level of expressed mRNA in the absence of chemical substance” value (yeast gene YOR288C) was 1.1 and the “The level of expressed mRNA in the presence of chemical substance/The level of expressed mRNA in the absence of chemical substance” value (yeast gene YOR327C) was 1.0. The “The level of expressed mRNA in the presence of chemical substance/The level of expressed mRNA in the absence of chemical substance” value (yeast gene YOR355W) was 1.0, the “The level of expressed mRNA in the presence of chemical substance/The level of expressed mRNA in the absence of chemical substance” value (yeast gene YOR383C) was 0.9 and the “The level of expressed mRNA in the presence of chemical substance/The level of expressed mRNA in the absence of chemical substance” value (yeast gene YPL010W) was 1.4. The “The level of expressed mRNA in the presence of chemical substance/The level of expressed mRNA in the absence of chemical substance” value (yeast gene YPL089C) was 1.4, the “The level of expressed mRNA in the presence of chemical substance/The level of expressed mRNA in the absence of chemical substance” value (yeast gene YPL109C) was 1.2 and the “The level of expressed mRNA in the presence of chemical substance/The level of expressed mRNA in the absence of chemical substance” value (yeast gene YPL149W) was 0.8. The “The level of expressed mRNA in the presence of chemical substance/The level of expressed mRNA in the absence of chemical substance” value (yeast gene YPL154C) was 1.2, the “The level of expressed mRNA in the presence of chemical substance/The level of expressed mRNA in the absence of chemical substance” value (yeast gene YPR080W) was 1.4 and the “The level of expressed mRNA in the presence of chemical substance/The level of expressed mRNA in the absence of chemical substance” value (yeast gene YPR103W) was 1.7. The “The level of expressed mRNA in the presence of chemical substance/The level of expressed mRNA in the absence of chemical substance” value (yeast gene YPR108W) was 1.3.
